In patent publication US20100196321A1, “COMPOUNDS” (GLAXOSMITHKLINE LLC, priority 2009, published 2010):

What was measured:
[1] = tested on: sub-genomic HCV NS3-NS5B replicon of genotype 1b (ET subline) in Huh-7 cells; assay: Replicon Luciferase Cell Based Assay, genotype 1b; parameters: species or system HCV genotype 1b; settings: Hepatitis C virus, Huh-7, 48 h, read-out: Genotype 1b (IC50 μM)
Method: (§1) A 10 mM stock solution in DMSO of each test compound was further diluted in DMSO in the first row of a 384-well, V-bottom microplate, to give 100 times the top concentration of the required dilution series. Dilutions of compound were prepared in 1:3 serial dilutions from the first row onwards robotically. A robot was also used to transfer 0.5 μL volumes from each dilution well into wells of white 384-well assay plates (Nunc #164610). Control wells received 0.5 μL of DMSO alone. Plates were made in duplicate for measuring HCV replication and cytotoxicity in the replicon cell lines.
(§2) Suspensions were prepared from cultures of Huh-7 cells stably transfected with sub-genomic HCV NS3—NS5B replicons of either genotype 1b (the ET subline described by Pietschmann, T., Lohmann, V., Kaul, A., Krieger, N., Rinck, G., Rutter, G., Strand, D. & Bartenschlager, R., Journal of Virology, 2002, 76, 4008-4021) or genotype 1a linked to a firefly luciferase reporter gene. Monolayers nearing confluency were stripped from growth flasks with versene-trypsin solution and the cells re-suspended in assay medium comprising DMEM (Invitrogen #11965-092) supplemented with 5% v/v foetal calf serum, 1% v/v non-essential amino acids solution, 100 units/ml penicillin, 100 μg/ml streptomycin and 2 mM GlutaMAX-1. 50 μL of suspension containing 5,000 cells of either genotype 1b or genotype 1a luciferase replicon were added to all wells, except medium controls, of the assay plate with a Multidrop Combi (Thermo Scientific Corporation) and the plate incubated for 48 hours at 37° C. in a 5% CO2 atmosphere. A solution of Steady-Glo cytolytic buffer/luciferase substrate (Promega #E2550) was prepared according to the manufacturer's instructions, and 20 μL were added to each well with a Multidrop Combi. To measure cytotoxicity, a solution of CellTiter-Glo Luminescent Cell Viability Assay reagent (Promega #G7573) was prepared according to the manufacturer's instructions, and 20 ul were added to each well with a Multidrop Combi. The plates were then read for luminescence on an Envision Multilabel Reader (Perkin Elmer)
(§3) Potency: The luminescence values from all compound-free wells containing cells were averaged to obtain a positive control value. The mean luminescence value from the compound-free wells that had received no cells was used to provide the negative (background) control value. After the subtraction of the mean background from all values, the readings from wells at each compound concentration were expressed as a percentage of the positive control signal. The quantifiable and specific reduction of luciferase signal in the presence of a drug is a direct measure of replicon inhibition. The BioAssay application and XC50 module were used to plot the curve of percentage inhibition against compound concentration and derive the 50% inhibitory concentration (IC50) for the compound.

[2] = tested on: sub-genomic HCV NS3-NS5B replicon of genotype 1a in Huh-7 cells; assay: Replicon Luciferase Cell Based Assay, genotype 1a; parameters: species or system HCV genotype 1a; settings: Hepatitis C virus, Huh-7, 48 hours
Method: as §1, §2, §3

Structure (SMILES)	IC50 [1]	IC50 [2]
COc1ccc2c(O[C@@H]3C[C@H]4C(=O)N[C@]5(C(=O)NS(=O)(=O)C6CC6)C[C@H]5/C=C\CCCCC[C@H](NC(=O)N5CC(F)(F)C5)C(=O)N4C3)cc(-c3nc(C4CC4)cs3)nc2c1C [Example 33, (2R,6S,13aS,14aR,16aS,Z)-N-(cyclopropylsulfonyl)-2-(2-(4-cyclopropylthiazol-2-yl)-7-methoxy-8-methylquinolin-4-yloxy)-6-(3,3-difluoroazetidine-1-carboxamido)-5,16-dioxo-1,2,3,5,6,7,8,9,10,11,13a,14,14a,15,16,16a-hexadecahydrocyclopropa[e]pyrrolo[1,2-a][1,4]diazacyclopentadecine-14a-carboxamide]	< 0.01 µM	< 0.01 µM
COc1ccc2c(O[C@@H]3C[C@H]4C(=O)N[C@]5(C(=O)NS(=O)(=O)C6CC6)C[C@H]5/C=C\CCCCC[C@H](NC(=O)N5CCN(C6CCCC6)CC5)C(=O)N4C3)cc(-c3nc(C(C)C)cs3)nc2c1C [Example 13, (2R,6S,13aS,14aR,16aS)-6-{[(4-cyclopentyl-1-piperazinyl)carbonyl]amino}-N-(cyclopropylsulfonyl)-2-{[8-methyl-2-[4-(1-methylethyl)-1,3-thiazol-2-yl]-7-(methyloxy)-4-quinolinyl]oxy}-5,16-dioxo-1,2,3,6,7,8,9,10,11,13a,14,15,16,16a-tetradecahydrocyclopropa[e]pyrrolo[1,2-a][1,4]diazacyclopentadecine-14a(5H)-carboxamide]	< 0.01 µM	< 0.01 µM
COc1ccc2c(O[C@@H]3C[C@H]4C(=O)N[C@]5(C(=O)NS(=O)(=O)C6CC6)C[C@H]5/C=C\CCCCC[C@H](NC(N)=O)C(=O)N4C3)cc(-c3nc(C(C)C)cs3)nc2c1C [Example 3, (2R,6S,13aS,14aR,16aS)-6-[(aminocarbonyl)amino]-N-(cyclopropylsulfonyl)-2-{[8-methyl-2-[4-(1-methylethyl)-1,3-thiazol-2-yl]-7-(methyloxy)-4-quinolinyl]oxy}-5,16-dioxo-1,2,3,6,7,8,9,10,11,13a,14,15,16,16a-tetradecahydrocyclopropa[e]pyrrolo[1,2-a][1,4]diazacyclopentadecine-14a(5H)-carboxamide]	< 0.01 µM	< 0.01 µM
COc1ccc2c(O[C@@H]3C[C@H]4C(=O)N[C@]5(C(=O)NS(=O)(=O)C6CC6)C[C@H]5/C=C\CCCCC[C@H](NC(=O)N5C[C@@H](C)O[C@@H](C)C5)C(=O)N4C3)cc(-c3nc(C(C)C)cs3)nc2c1C [Example 11, (2R,6S,13aS,14aR,16aS)-N-(cyclopropylsulfonyl)-6-({[(2R,6S)-2,6-dimethyl-4-morpholinyl]carbonyl}amino)-2-{[8-methyl-2-[4-(1-methylethyl)-1,3-thiazol-2-yl]-7-(methyloxy)-4-quinolinyl]oxy}-5,16-dioxo-1,2,3,6,7,8,9,10,11,13a,14,15,16,16a-tetradecahydrocyclopropa[e]pyrrolo[1,2-a][1,4]diazacyclopentadecine-14a(5H)-carboxamide]	< 0.01 µM	< 0.01 µM
COc1ccc2c(O[C@@H]3C[C@H]4C(=O)N[C@]5(C(=O)NS(=O)(=O)C6CC6)C[C@H]5/C=C\CCCCC[C@H](NC(=O)N5CCCC5)C(=O)N4C3)cc(-c3nc(C4CC4)cs3)nc2c1C [Example 30, (2R,6S,13a-5,1-aR,16aS,Z)-N-(cyclopropylsulfonyl)-2-(2-(4-cyclopropylthiazol-2-yl)-7-methoxy-8-methylquinolin-4-yloxy)-5,16-dioxo-6-(pyrrolidine-1-carboxamido)-1,2,3,5,6,7,8,9,10,11,13a,14,14a,15,16,16a-hexadecahydrocyclopropa[e]pyrrolo[1,2-a][1,4]diazacyclopentadecine-14a-carboxamide]	< 0.01 µM	< 0.01 µM
COc1ccc2c(O[C@@H]3C[C@H]4C(=O)N[C@]5(C(=O)NS(=O)(=O)C6CC6)C[C@H]5/C=C\CCCCC[C@H](NC(=O)N5CCC5)C(=O)N4C3)cc(-c3nc(C(C)C)cs3)nc2c1C [Example 18, (2R,6S,13aS,14aR,16aS)-6-[(1-azetidinylcarbonyl)amino]-N-(cyclopropylsulfonyl)-2-{[8-methyl-2-[4-(1-methylethyl)-1,3-thiazol-2-yl]-7-(methyloxy)-4-quinolinyl]oxy}-5,16-dioxo-1,2,3,6,7,8,9,10,11,13a,14,15,16,16a-tetradecahydrocyclopropa[e]pyrrolo[1,2-a][1,4]diazacyclopentadecine-14a(5H)-carboxamide]	< 0.01 µM	< 0.01 µM
CCN(CC)C(=O)N[C@H]1CCCCC/C=C\[C@@H]2C[C@@]2(C(=O)NS(=O)(=O)C2CC2)NC(=O)[C@@H]2C[C@@H](Oc3cc(-c4nc(C(C)C)cs4)nc4c(C)c(OC)ccc34)CN2C1=O [Example 2, (2R,6S,13aS,14aR,16aS)-N-(cyclopropylsulfonyl)-6-{[(diethylamino)carbonyl]amino}-2-{[8-methyl-2-[4-(1-methylethyl)-1,3-thiazol-2-yl]-7-(methyloxy)-4-quinolinyl]oxy}-5,16-dioxo-1,2,3,6,7,8,9,10,11,13a,14,15,16,16a-tetradecahydrocyclopropa[e]pyrrolo[1,2-a][1,4]diazacyclopentadecine-14a(5H)-carboxamide]	< 0.01 µM	< 0.01 µM
COc1ccc2c(O[C@@H]3C[C@H]4C(=O)N[C@]5(C(=O)NS(=O)(=O)C6CC6)C[C@H]5/C=C\CCCCC[C@H](NC(=O)N(C)C(C)C)C(=O)N4C3)cc(-c3nc(C4CC4)cs3)nc2c1C [Example 7, (2R,6S,13aS,14aR,16aS)-N-(cyclopropylsulfonyl)-2-{[2-(4-cyclopropyl-1,3-thiazol-2-yl)-8-methyl-7-(methyloxy)-4-quinolinyl]oxy}-6-({[methyl(1-methylethyl)amino]carbonyl}amino)-5,16-dioxo-1,2,3,6,7,8,9,10,11,13a,14,15,16,16a-tetradecahydrocyclopropa[e]pyrrolo[1,2-a][1,4]diazacyclopentadecine-14a(5H)-carboxamide]	< 0.01 µM	< 0.01 µM
CCN(CC)C(=O)N[C@H]1CCCCC/C=C\[C@@H]2C[C@@]2(C(=O)NS(=O)(=O)C2CC2)NC(=O)[C@@H]2C[C@@H](Oc3cc(-c4nc(C(F)(F)F)cs4)nc4c(Cl)c(OC)ccc34)CN2C1=O [Example 29, Cycloprobanesulfonic acid [18-[8-chloro-7-methoxy-2-(4-trifluoromethyl-thiazol-2-yl)-quinolin-4-yloxy]-14-(3,3-diethyl-ureido)-2,15-dioxo-3,16-diaza-tricyclo[14.3.0.04,6]nonadec-7-ene-4-carbonyl]-amide]	< 0.01 µM	< 0.01 µM
COc1ccc2c(O[C@@H]3C[C@H]4C(=O)N[C@]5(C(=O)NS(=O)(=O)C6CC6)C[C@H]5/C=C\CCCCC[C@H](NC(=O)N(C)C)C(=O)N4C3)cc(-c3nc(C4CC4)cs3)nc2c1C [Example 6, (2R,6S,13aS,14aR,16aS)-N-(cyclopropylsulfonyl)-2-{[2-(4-cyclopropyl-1,3-thiazol-2-yl)-8-methyl-7-(methyloxy)-4-quinolinyl]oxy}-6-{[(dimethylamino)carbonyl]amino}-5,16-dioxo-1,2,3,6,7,8,9,10,11,13a,14,15,16,16a-tetradecahydrocyclopropa[e]pyrrolo[1,2-a][1,4]diazacyclopentadecine-14a(5H)-carboxamide]	< 0.01 µM	< 0.01 µM
COc1ccc2c(O[C@@H]3C[C@H]4C(=O)N[C@]5(C(=O)NS(=O)(=O)C6CC6)C[C@H]5/C=C\CCCCC[C@H](NC(=O)N5CCC5)C(=O)N4C3)cc(-c3nc(C4CC4)cs3)nc2c1C [Example 32, (2R,65,13aS,14aR,16aS,Z)-6-(azetidine-1-carboxamido)-N-(cyclopropylsulfonyl)-2-(2-(4-cyclopropylthiazol-2-yl)-7-methoxy-8-methylquinolin-4-yloxy)-5,16-dioxo-1,2,3,5,6,7,8,9,10,11,13a,14,14a,15,16,16a-hexadecahydrocyclopropa[e]pyrrolo[1,2-a][1,4]diazacyclopentadecine-14a-carboxamide]	< 0.01 µM	< 0.01 µM
